Source: patent US20230293599A1, “BACTERIAL COMPOSITIONS WITH ANTI-INFLAMMATORY ACTIVITY” (Universiteit Gent, priority 2020, published 2023)
Like-named read-outs stand apart in the source and are kept apart here.

Tests used:
S. aureus = assay type: cell-based, Staphylococcus aureus
Summary of the method: (§1)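 Growth on 190 carbon sources in Biolog PM1 and PM2 panels, inoculated per manufacturer's protocol. Growth curves followed for 35 hours by absorbance at 590 nm.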

R. dentocariosa = experiment: Biolog Phenotype Microarray PM1-2 growth on carbon sources; assay type: cell-based, Rothia dentocariosa
Procedure: (§2) Using Phenotype Microarray (PM) panels (Biolog), the influence of 190 carbon sources on the growth of the potential probiotic species R. mucilaginosa, R. dentocariosa, R. gilardii, G. haemolysans, and common respiratory pathogens P. aeruginosa, and S. aureus was determined. PM1 and PM2 panels (Biolog) were inoculated according to the manufacturer's instructions. Growth curves were generated for 35 hours by measuring the absorbance at 590 nm using an EnVision (Perkin Elmer) plate reader.

G. haemolysans = experiment: as above; assay type: cell-based, Gemella haemolysans
Procedure: as §2

P. aeruginosa = experiment: as above; assay type: cell-based, Pseudomonas aeruginosa
Summary of the method: as §1

R. mucilaginosa = experiment: as above; assay type: cell-based, Rothia mucilaginosa
Procedure: as §2

R. gilardii = experiment: as above; assay type: cell-based, Roseomonas gilardii
Procedure: as §2

NF-κB pathway = experiment: NF-κB-luciferase reporter 3-D A549 cells stimulated with LPS (Example 2); assay type: cell-based, human; conditions: acetate at 28.3 mM and 18.0 mM, 4-hour incubation (FIG. 10)
Procedure: 3-D cells of the human adenocarcinoma alveolar lung epithelial cell line A549 transfected with an NF-κB-luciferase reporter (BPS Bioscience, San Diego, CA) were prepared as described previously for A549 cells (Crabbé et al., 2016; Barrila et al., 2010; Harris et al. 2007; Chen et a., 2019). Briefly, a monolayer of NF-κB-A549 cells was grown in T75 cell culture flasks containing GTSF-2 medium (HyClone, Logan, UT) supplemented with 1.5 g/L sodium bicarbonate (Sigma-Aldrich), 10% fetal bovine serum (FBS, Life technologies), 2.5 mg/L insulin transferring sodium selenite (Lonza) and 1% penicillin-streptomycin (pen-strep, Life Technologies) at 37° C. under 5% CO2. At confluence, the cells were seeded in the Rotating Wall Vessel (RWV) bioreactor with type-1 collagen coated dextran beads at a cell to bead ratio of 2:1 and were cultured for 11 to 14 days. […]
The NF-κB pathway was activated in 3-D NF-κB -A549 cells by 4 hours stimulation with LPS (100 μg/mL) in the presence or absence (positive control) of each of the isolates (Table 1) at varying multiplicity of infection (MOI) starting from an MOI of 100 to an MOI of 1.56 by performing 1:2 serial dilutions. […] After 4 hours incubation, 3-D epithelial cells containing the NF-κB -luciferase reporter were transferred to a black 96-well plate for analysis of luminescence. […] Luminescence was measured by an EnVision (Perkin Elmer) luminometer.

[1] = 35 hours, absorbance 590 nm, n = 1, cells without values AUC < 50

| Compound | AUC of growth curve, S. aureus (S. aureus) | AUC of growth curve, R. dentocariosa (R. dentocariosa) | AUC of growth curve, G. haemolysans (G. haemolysans) | AUC of growth curve, P. aeruginosa (P. aeruginosa) | AUC of growth curve, R. mucilaginosa (R. mucilaginosa) | AUC of growth curve, R. gilardii (R. gilardii) | AUC of growth curve, R. dentocariosa (R. dentocariosa; [1]) | AUC of growth curve, G. haemolysans (G. haemolysans; [1]) | AUC of growth curve, P. aeruginosa (P. aeruginosa; [1]) | AUC of growth curve, R. mucilaginosa (R. mucilaginosa; [1]) | AUC of growth curve, R. gilardii (R. gilardii; [1]) | effect on LPS-stimulated NF-κB pathway activation (NF-κB pathway) | AUC of growth curve, S. aureus (S. aureus; [1]) |
| --- | --- | --- | --- | --- | --- | --- | --- | --- | --- | --- | --- | --- | --- |
| O=C(CO)[C@@H](O)[C@H](O)[C@H](O)CO [D-Fructose] | 992.9 | 109.5 | 88.8 | 413.3 | 1111.2 | 315.8 |  |  |  |  |  |  |  |
| O=C[C@H](O)[C@H](O)[C@H](O)CO [D-Ribose] | 769.0 |  |  |  |  |  | 431.1 | 627.5 | 1450.3 | 371.4 | 718.5 |  |  |
| O=C[C@H](O)[C@@H](O)[C@H](O)CO [D-Xylose] | 92.4 |  |  |  |  |  | 257.9 | 581.3 | 1218.3 | 157.4 | 310.4 |  |  |
| NC(=O)[C@@H](O)[C@@H](O)[C@H](O)[C@@H](O)C=O [Glucuronamide] | 62.8 |  |  |  |  |  | 124.2 | 97.6 | 820.8 | 84.9 | 53.3 |  |  |
| O=C[C@H](O)[C@@H](O)[C@@H](O)CO [L-Arabinose] | 356.7 |  |  |  |  |  | 314.8 | 120.4 | 1269.0 | 195.3 | 804.7 |  |  |
| C[C@H](O)[C@@H](O)[C@@H](O)[C@H](O)C=O [L-Fucose] | 277.6 |  |  |  |  |  | 478.0 | 95.6 | 701.4 | 155.6 | 86.6 |  |  |
| O=C[C@H](O)[C@H](O)[C@@H](O)CO [L-Lyxose] | 308.4 |  |  |  |  |  | 474.8 | 430.7 | 1393.5 | 377.5 | 765.9 |  |  |
| C[C@H](O)[C@H](O)[C@@H](O)[C@@H](O)C=O [L-Rhamnose] | 423.5 |  |  |  |  |  | 149.9 | 104.6 | 265.3 | 197.8 | 178.6 |  |  |
| CC(=O)C(=O)O [Pyruvic Acid] | 763.0 |  |  |  |  |  | 343.3 | 552.9 | 877.9 | 205.5 | 215.7 |  |  |
| CC(=O)O [acetate] |  |  |  |  |  |  |  |  |  |  |  | did not reduce |  |
| OC[C@H]1O[C@H](O)[C@H](O)[C@@H](O)[C@@H]1O [α-D-Glucose] | 966.1 |  |  |  |  |  | 1288.0 | 1140.8 | 830.2 | 1068.2 | 115.5 |  |  |
| Pectin |  |  |  |  |  |  | 683.6 | 68.6 | 334.5 | 199.5 | 141.7 |  | 996.1 |
